Results on six molecules are retold here after patent publication US6521633B2, “Treating NIDDM with RXR agonists” (Ligand Pharmaceuticals Incorporated, priority 1995, dated 2003).

In assay [1] the test system is 3T3-LI cells. Kind of assay: Oil red O staining of differentiating 3T3-LI adipocytes. The class given is cell-based, mouse. The conditions noted are these: for Percent of Differentiated Cells: 3T3-L1, BRL 49653 and LG 100268 at 1 μM; for Percent of Differentiated Cells / cells induced to differentiate into adipocytes: insulin at 0.01 mg/ml; for cells induced to differentiate into adipocytes: BRL 49653 and retinoid at 1 μM. The text has this: They are contact inhibited and can be induced to differentiate into adipocyte cells containing large lipid droplets within the cytoplasm. Adipocyte differentiation can be observed by oil red O staining which stains the lipid droplets within the cytoplasm red. The extent of adipocyte differentiation can then be monitored by microscope observation.

For assay [2], the system named is C3H/10T1/2 cells. The experiment in a line: Oil red O staining of C3H/10T1/2 cells. The format is cell-based, mouse. The following applies: for Experiment B (+BRL + Insulin) % differentiated cells / Experiment A (+BRL) % differentiated cells: 7 days; for effect on differentiation induced by BRL 49653 or BRL/insulin: in combination with BRL 49653.
The subject of assay [3] is 3T3-LI cells. The experiment in a line: 96-well plate triglyceride accumulation assay in differentiating adipocytes. The format is cell-based, mouse. The following applies: for triglyceride accumulation: retinoids and BRL 49653 at 1 μM, insulin at 0.01 mg/ml, alone or all together; for triglyceride accumulation on addition of retinoid with BRL 49653: retinoid 1 μM with BRL 49653 1 μM. The text has this:
For a more quantitative assay and rapid screening of compounds, a 96-well plate assay was developed to quantitate the amount of triglyceride produced by the differentiating adipocytes. […] The level of triglyceride accumulation can then be measured via an enzymatic color reaction which can be read in a plate reader. The retinoid modulation of lipid formation was quantitated by monitoring triglyceride formation.

The test system of assay [4] is 3T3-L1 cells. The experiment in a line: Insulin stimulated labeled 2-deoxyglucose uptake assay. The following applies: 3T3-L1 treated 10 days; BRL 49653 or LG 100268 (1 μM); insulin 0.01 mg/ml for 5 days; normalized to total cellular protein. The format is cell-based, mouse. As to the method:
A fourth indicator for the utility of a compound in treating NIDDM or insulin-resistant diabetes is the compound's, ability to enhance insulin-stimulated glucose uptake. Labeled 2-deoxyglucose (2-DOG, a glucose analog) assay was performed with a preadipocyte cell line in the presence of insulin and a candidate compound to measure the level of 2-DOG incorporation.
A murine preadipocyte cell line, 3T3-L1, is widely used to study glucose uptake, adipogenesis, and has been used in the characterization of thiazolidinediones and other PPARγ activators.
Insulin was added to the cells at a concentration of 0.01 mg/ml for 5 days, thereafter no insulin was added. […] The level of incorporated labeled 2-DOG was normalized to the amount of total cellular protein.

For assay [5], the system named is db/db mice. The experiment in a line: In vivo experiment with db/db mice. The following applies: for increase of HDL-cholesterol levels in comparison to controls: BRL 49653, or combination, terminal serum, precipitation method; for lowering of the level of glucose in comparison to control: BRL 49653 1 mg/kg, LG 100268 20 mg/kg, or combination.
Description: Animals: Strain Diabetic C57BLKS/Jm+/+db, 82 mice
Mice were identified by an ear punch code (#1-82) and separated into 8 groups (A-H). Each group consisted of 10 mice separated into 4 cages with 2-3 mice/cage. […] Control group C consisted of 12 mice. […] Food and water were provided ad libitum. Food intake/cage was measured over selected periods and expressed as g food consumed/100 g mouse/day.
(§1) On days of study, food was removed from the cages at selected intervals of time between 6:15 and 7:00 AM. Animal weights were recorded 2 h after start of fast and blood samples taken after a 3 h fast. Blood was drawn from a cut at the tip of the tail and collected into a heparinized capillary tube (approx. 75 μl volume). After centrifugation, the hematocrit was read in a microcapillary reader, recorded and the tube broken for recovery of plasma for analysis of glucose, triglyceride and insulin concentration.
Blood samples were collected on days 0−1,0, 3, 7, 10, and on the final day of study, days 13-15. […] The various solutions were gavaged daily to their respective groups based on the animals weight taken that morning or the weight of the animal taken on the preceding day of weighing. To assess alterations in plasma FFA, on day 10 an addition 75 μl blood sample was collected into an EDTA-coated capillary tube immediately after collecting the basal heparinized capillary tube sample.
On the final day of study, mice were not gavaged with test solution. The last gavage was administered on the day preceding the final day, i.e., day 12 for animals terminated on day 13, day 13 for animals terminated on day 14 and day 14 for animals terminated on day 15. Terminal blood was collected by decapitation to provide serum for assessment of HDL.
For assay [6], the system named is ob/ob mice. The experiment in a line: In vivo experiment with ob/ob mice. The conditions noted are these: mouse.
Description: Each group consisting of 10 mice.
as §1
Blood samples were collected on days 0−3, 0, 3, 6, 8, 10, 14±1 and final collections were made on days 15, 16 or 17. FFA samples were collected on day 10 by drawing a second 75 μl blood sample in a non-heparinized tube coated with EDTA. This tube was collected immediately after the heparinized tube collection.
Animals in groups H were administered control gavage solution (0.6 ml/42 g) daily commencing on day 0 and ending on the day preceding the final day. 11 test solutions were administered to animals in groups designated A-G, I-L. All gavage solutions were administered after refeeding on days in which mice were fasted for blood sampling.
The test system of assay [7] is LPL (lipoprotein lipase) mRNA and PPARγ mRNA. Kind of assay: Northern blot analysis of adipocyte specific genes in 3T3-LI cells. The conditions noted are these: 3T3-LI treated for 7 days; BRL 49653 1 μM, LG 100268 1 μM, insulin 0.01 mg/ml. The format is cell-based, mouse. As to the method:
A third measure of adipocyte differentiation is to examine regulation of gene expression. […] Northern blot analysis was used to dissect the molecular aspects of how retinoids effect target genes of differentiating adipocytes. PPARγ, lipoprotein lipase (LPL), and β-actin (loading control) mRNA levels were monitored after cells were treated with thiazolidinediones and retinoids.
Adipocyte specific genes were monitored via northern blot analysis.

Setting [8] is: BRL 0.1 μM + insulin 0.01 mg/ml, alone or plus ALRT 1057 1 μM or LGD 1069 1 μM.
[9] abbreviates: BRL 0.1 μM alone or plus ALRT 1057 1 μM, LGD 1069 1 μM or TTNPB 10 nM.
The mark [10] stands for this setting: BRL 10 μM + insulin 0.01 mg/ml, alone or plus ALRT 1057 1 μM, LGD 1069 1 μM or TTNPB 10 nM.
Where [11] appears, read: BRL 10 μM alone or plus ALRT 1057 1 μM, LGD 1069 1 μM or TTNPB 10 nM.
Setting [12] is: middle group r17-r20, headed BRL (0.1 μM), + insulin 0.01 mg/ml, alone or plus ALRT 1057 1 μM, LGD 1069 1 μM or TTNPB 10 nM.
The mark [13] stands for this setting: middle group r17-r20, headed BRL (0.1 μM), alone or plus ALRT 1057 1 μM, LGD 1069 1 μM or TTNPB 10 nM.

As for `CC1=C(/C=C/C(C)=C\C=C\C(C)=C\C(=O)O)C(C)(C)CCC1` [ALRT 1057, 9-cis retinoic acid], the “amount of adipocyte differentiation when used in combination with BRL 49653” value (shortened to “amount of adipocyte differentiation”) in assay [1] (3T3-LI) was “increased the amount of differentiation”. Further, the “Experiment B (+BRL + Insulin) % differentiated cells” value in assay [2] (setting [8]) is reported as 65%; in assay [2] (setting [10]), 99%; in assay [2] (setting [12]) it was 90%. Further, the “Experiment A (+BRL) % differentiated cells” value in assay [2] (setting [9]) is 45%; in assay [2] (setting [11]) it was 80%; in assay [2] (setting [13]) it was 65%. For the same molecule, in assay [2], the “effect on differentiation induced by BRL 49653 or BRL/insulin” value is on record as “large increase in the amount of differentiation”.
In the case of `CN(CCOc1ccc(CC2SC(=O)NC2=O)cc1)c1ccccn1` (stereo not shown) [BRL 49653, 5-[[4-[2-(methyl-2-pyridinylamino)ethoxy]phenyl]methyl]-2,4-thiazolidinedione, reference compound], the “Percent of Differentiated Cells” value in assay [1] was found to be 50%. Besides, the “cells induced to differentiate into adipocytes” value in assay [1] (3T3-LI) is on record as 50%. Further, the triglyceride accumulation result in assay [3] is “induced some triglyceride accumulation”. Moreover, the “increase in 2-DOG uptake” value in assay [4] was “About 5 fold”. The “increase of HDL-cholesterol levels in comparison to controls” value in assay [5] (LG 100268 20 mg/kg) is given as “equivalent level of increase”. Moreover, the “lowering of the level of glucose in comparison to control” value (“lowering of the level of glucose” for short) in assay [5] (daily gavage, by day 15) is reported as 40%.
For `Cc1cc2c(cc1C1(c3ccc(C(=O)O)cn3)CC1)C(C)(C)CCC2(C)C` [LG 100268, 2-[1-(3,5,5,8,8-pentamethyl-5,6,7,8-tetrahydro-2-naphthyl)-cyclopropyl]-pyridine-5-carboxylic acid], the “Percent of Differentiated Cells” value in assay [1] is recorded as 50%. In assay [1] (3T3-LI), the “cells induced to differentiate into adipocytes” value is reported as 50% and the “amount of adipocyte differentiation” value was “increased dramatically”. In assay [1] (3T3-LI, LG 100268 at 1 μM), the “lipid droplets within the cytoplasm” value was “bigger redder lipid droplets”. In assay [3], the “triglyceride accumulation on addition of retinoid with BRL 49653” value is “increased the amount of triglyceride accumulation” and the triglyceride accumulation entry is given as “largest response”. Further, the “increase in 2-DOG uptake” value in assay [4] is on record as “About 2 fold”. For the same molecule, in assay [5] (LG 100268 20 mg/kg), the “increase of HDL-cholesterol levels in comparison to controls” value amounted to 20%. The “lowering of the level of glucose” value in assay [5] (daily gavage, by day 15) is reported as 40%. Besides, the “lowering of the level of triglycerides” value in assay [5] (daily gavage, LG 100268 20 mg/kg, BRL 49653 1 mg/kg, or combination, by day 15) came out at 46%. In addition, the “lowering of the level of glucose” value in assay [6] is on record as about 50%.
Take `C=C(c1ccc(C(=O)O)cc1)c1cc2c(cc1C)C(C)(C)CCC2(C)C` [LGD 1069]: the “amount of adipocyte differentiation” value in assay [1] (3T3-LI) is listed as “increased the amount of differentiation”. Moreover, in assay [3], the “triglyceride accumulation on addition of retinoid with BRL 49653” value was “increased the amount of triglyceride accumulation”. Besides, the “Experiment B (+BRL + Insulin) % differentiated cells” value in assay [2] (setting [8]) turned out to be 90%; in assay [2] (setting [10]) it was 99%; in assay [2] (setting [12]), 90%. In addition, the “Experiment A (+BRL) % differentiated cells” value in assay [2] (setting [9]) worked out at 45%; in assay [2] (setting [11]), 80%; in assay [2] (setting [13]), 65%. The “effect on differentiation induced by BRL 49653 or BRL/insulin” value in assay [2] is listed as “large increase in the amount of differentiation”.
For `C/C(=C\c1ccc(C(=O)O)cc1)c1ccc2c(c1)C(C)(C)CCC2(C)C` [TTNPB, reference compound], the “Experiment A (+BRL) % differentiated cells” value in assay [2] (setting [9]) is on record as 0.2%; in assay [2] (setting [11]), 5%; in assay [2] (setting [13]), 2%. In addition, the “Experiment B (+BRL + Insulin) % differentiated cells” value worked out at 50% in assay [2] (setting [10]) and 30% in assay [2] (setting [12]). For the same molecule, the “effect on differentiation induced by BRL 49653 or BRL/insulin” value in assay [2] was “inhibited the differentiation”.
Turning to Insulin: insulin, used at 0.01 mg/ml, in assay [1], the “Percent of Differentiated Cells” value was found to be 20%. In assay [3], the triglyceride accumulation result is “induced some triglyceride accumulation”. The “LPL and PPARγ mRNA levels, relative signal normalized to β-actin” value in assay [7] is “three to five fold increase”.
